Source: patent publication US6140368A, “Naphthols useful in antiviral methods” (The Regents of the University of California, priority 1998, dated 2000)
Like-named read-outs stand apart in the source and are kept apart here.

Key:
[1] = biological target: HIV reverse transcriptase (Human immunodeficiency virus type 1 group M subtype B, UniProt P03366); test: Reverse transcriptase scintillation proximity assay (Example 4, Table 2); assay type: biochemical; settings: for IC50: read-out: IC50 (RT activity); for remaining activity at 10 µM: 0.05 h, read-out: % RT activity remaining at 10 μM
Procedure, shortened: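 Purified RT with biotinylated 17mer/50mer RNA-DNA template-primer (39 nm), pH 8.0 Tris with 10 mM MgCl2, 60 mM KCl, dNTPs plus tritiated dTTP; inhibitor preincubated 10 min at 37 °C before enzyme, reaction 3 min. Incorporation read by streptavidin SPA counting.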

HIV integrase [2] = biological target: T1, HIV integrase (Human immunodeficiency virus type 1 group M subtype B, UniProt P04585); test: biochemical
HIV = test: Cell-based anti-HIV (XTT) assay (National Institutes of Health); settings: run by the National Institutes of Health
Source text: The anti-viral evaluations branch of the National Institutes of Health also ran cell-based anti-HIV (XTT) assays and reverse transcriptase (RT) assays on a number of the novel compounds. […] These were: 31, 32, 35, 36, 53, 54, 57, 58, 91, 99, and 103.

HIV integrase [3] = biological target: T1, HIV integrase; test: biochemical; remark: listed apart in the source
[4] = read-out: Inhibition of strand transfer (IC50)
[5] = read-out: Inhibition of 3' processing activity (IC50)
[6] = 10 μM inhibitor, relative to dimethyl sulfoxide = 100%
[7] = Inhibition of strand transfer (IC50)
[8] = Inhibition of 3' processing activity (IC50)

Row | Structure (SMILES) | IC50 (HIV integrase [2]; [4]) | IC50 (HIV integrase [3]; [5]) | remaining activity at 10 µM [1, 6] | further results
1 | O=C(Nc1ccc2c(O)c(N=Nc3ccc(C(=O)O)cc3)c(S(=O)(=O)O)cc2c1)Nc1ccc2c(O)c(N=Nc3ccc(C(=O)O)cc3)c(S(=O)(=O)O)cc2c1 [Compound 31] | 0.7 µM | 0.4 µM | – | IC50 [1]: 0.39 µM; conclusion of cell-based anti-HIV (XTT) assays and reverse transcriptase (RT) assays (HIV): active or moderately active
2 | CCOC(=O)c1ccccc1N=Nc1c(S(=O)(=O)O)cc2cc(NC(=O)Nc3ccc4c(O)c(N=Nc5ccccc5C(=O)OCC)c(S(=O)(=O)O)cc4c3)ccc2c1O [Compound 42] | > 3 µM | > 3 µM | 47% | –
3 | O=C(Nc1ccc2c(O)c(N=Nc3c(Cl)cc(C(=O)O)cc3Cl)c(S(=O)(=O)O)cc2c1)Nc1ccc2c(O)c(N=Nc3c(Cl)cc(C(=O)O)cc3Cl)c(S(=O)(=O)O)cc2c1 [Compound 52] | 0.5 µM | 0.2 µM | 1.3% | –
4 | O=C(Nc1ccc2c(O)c(N=Nc3ccc(CP(=O)(O)O)cc3)c(S(=O)(=O)O)cc2c1)Nc1ccc2c(O)c(N=Nc3ccc(CP(=O)(O)O)cc3)c(S(=O)(=O)O)cc2c1 [Compound 61] | > 3 µM | > 3 µM | – | remaining activity at 10 µM [1]: 53%
5 | Cc1cc(C(=O)O)ccc1N=Nc1c(S(=O)(=O)O)cc2cc(NC(=O)C(=O)Nc3ccc4c(O)c(N=Nc5ccc(C(=O)O)cc5C)c(S(=O)(=O)O)cc4c3)ccc2c1O [Compound 103] | < 1 µM | < 1 µM | – | conclusion of cell-based anti-HIV (XTT) assays and reverse transcriptase (RT) assays (HIV): active or moderately active
6 | O=C(Nc1ccc2c(O)c(N=Nc3ccccc3)c(S(=O)(=O)O)cc2c1)Nc1ccc2c(O)c(N=Nc3ccccc3)c(S(=O)(=O)O)cc2c1 [Compound 4, calcomine orange, reference compound] | 2 µM | 2 µM | – | IC50 [1]: 1.5 µM
7 | O=C(Nc1ccc2c(O)c(N=Nc3cnc4ccccc4c3)c(S(=O)(=O)O)cc2c1)Nc1ccc2c(O)c(N=Nc3cnc4ccccc4c3)c(S(=O)(=O)O)cc2c1 [Compound 37] | > 3 µM | > 3 µM | 16% | –
8 | COc1cc(N=Nc2c(S(=O)(=O)O)cc3cc(NC(=O)Nc4ccc5c(O)c(N=Nc6cc(OC)cc(OC)c6)c(S(=O)(=O)O)cc5c4)ccc3c2O)cc(OC)c1 [Compound 38] | > 3 µM | > 3 µM | 47% | –
9 | Cc1ccc(CO)cc1N=Nc1c(S(=O)(=O)O)cc2cc(NC(=O)Nc3ccc4c(O)c(N=Nc5cc(CO)ccc5C)c(S(=O)(=O)O)cc4c3)ccc2c1O [Compound 55] | > 3 µM | > 3 µM | 24% | –
10 | COc1cc(N=Nc2c(S(=O)(=O)O)cc3cc(NC(=O)Nc4ccc5c(O)c(N=Nc6cc(OC)c(OC)cc6C(=O)O)c(S(=O)(=O)O)cc5c4)ccc3c2O)c(C(=O)O)cc1OC [Compound 60] | 2 µM | 0.8 µM | 6% | –
11 | O=C(O)/C=C/c1ccc(N=Nc2c(S(=O)(=O)O)cc3cc(NC(=O)C(=O)Nc4ccc5c(O)c(N=Nc6ccc(/C=C/C(=O)O)cc6)c(S(=O)(=O)O)cc5c4)ccc3c2O)cc1 [Compound 91] | – | – | – | conclusion of cell-based anti-HIV (XTT) assays and reverse transcriptase (RT) assays (HIV): active or moderately active
12 | COc1cc(C(=O)O)ccc1N=Nc1c(S(=O)(=O)O)cc2cc(NC(=O)C(=O)Nc3ccc4c(O)c(N=Nc5ccc(C(=O)O)cc5OC)c(S(=O)(=O)O)cc4c3)ccc2c1O [Compound 99] | 0.3 µM | – | – | conclusion of cell-based anti-HIV (XTT) assays and reverse transcriptase (RT) assays (HIV): active or moderately active
13 | O=C(Nc1ccc2c(O)c(N=Nc3cccc4c(=O)[nH][nH]c(=O)c34)c(S(=O)(=O)O)cc2c1)Nc1ccc2c(O)c(N=Nc3cccc4c(=O)[nH][nH]c(=O)c34)c(S(=O)(=O)O)cc2c1 [Compound 49] | 1 µM | 2 µM | 1% | –
14 | O=C(O)CC(C(=O)O)c1ccc(N=Nc2c(S(=O)(=O)O)cc3cc(NC(=O)Nc4ccc5c(O)c(N=Nc6ccc(C(CC(=O)O)C(=O)O)cc6)c(S(=O)(=O)O)cc5c4)ccc3c2O)cc1 (stereo not shown) [Compound 33] | 0.6 µM | 0.3 µM | – | IC50 [1]: 0.5 µM
15 | COc1ccc(N=Nc2c(S(=O)(=O)O)cc3cc(NC(=O)Nc4ccc5c(O)c(N=Nc6ccc(OC)c(OC)c6)c(S(=O)(=O)O)cc5c4)ccc3c2O)cc1OC [Compound 39] | 3 µM | 2 µM | 12% | –
16 | COc1ccc(N=Nc2c(S(=O)(=O)O)cc3cc(NC(=O)Nc4ccc5c(O)c(N=Nc6ccc(OC)nc6OC)c(S(=O)(=O)O)cc5c4)ccc3c2O)c(OC)n1 [Compound 40] | > 3 µM | > 3 µM | 31% | –
17 | O=C(Nc1ccc2c(O)c(N=Nc3ccc4oc(=O)ccc4c3)c(S(=O)(=O)O)cc2c1)Nc1ccc2c(O)c(N=Nc3ccc4oc(=O)ccc4c3)c(S(=O)(=O)O)cc2c1 [Compound 59] | 1 µM | 2 µM | 2% | –

Row | Structure (SMILES) | IC50 (HIV integrase [2]; [4]) | IC50 (HIV integrase [3]; [5]) | remaining activity at 10 µM [1, 6] | further results
18 | O=C(Nc1ccc2c(O)c(N=Nc3ccc([N+](=O)[O-])cc3)c(S(=O)(=O)O)cc2c1)Nc1ccc2c(O)c(N=Nc3ccc([N+](=O)[O-])cc3)c(S(=O)(=O)O)cc2c1 [Compound 46] | – | – | 4.6% | IC50 (HIV integrase [2]; [7]): > 3 µM; IC50 (HIV integrase [3]; [8]): > 3 µM
19 | COc1cc(C(=O)O)c(N=Nc2c(S(=O)(=O)O)cc3cc(NC(=O)Nc4ccc5c(O)c(N=Nc6c(C(=O)O)cc(OC)c(OC)c6OC)c(S(=O)(=O)O)cc5c4)ccc3c2O)c(OC)c1OC [Compound 50] | 2 µM | 2 µM | 1.3% | –
20 | O=C(Nc1ccc2c(O)c(N=Nc3ncn[nH]3)c(S(=O)(=O)O)cc2c1)Nc1ccc2c(O)c(N=Nc3ncn[nH]3)c(S(=O)(=O)O)cc2c1 [Compound 65] | 0.5 µM | 0.8 µM | – | –
21 | CCOC(=O)c1cccc(N=Nc2c(S(=O)(=O)O)cc3cc(NC(=O)Nc4ccc5c(O)c(N=Nc6cccc(C(=O)OCC)c6)c(S(=O)(=O)O)cc5c4)ccc3c2O)c1 [Compound 43] | > 20 µM | > 20 µM | 52% | –
22 | O=C(Nc1ccc2c(O)c(N=Nc3cccc([N+](=O)[O-])c3)c(S(=O)(=O)O)cc2c1)Nc1ccc2c(O)c(N=Nc3cccc([N+](=O)[O-])c3)c(S(=O)(=O)O)cc2c1 [Compound 45] | – | – | 2.8% | IC50 (HIV integrase [2]; [7]): > 3 µM; IC50 (HIV integrase [3]; [8]): > 3 µM
23 | COC(=O)/C=C/c1ccc(N=Nc2c(S(=O)(=O)O)cc3cc(NC(=O)Nc4ccc5c(O)c(N=Nc6ccc(/C=C/C(=O)OC)cc6)c(S(=O)(=O)O)cc5c4)ccc3c2O)cc1 [Compound 56] | > 3 µM | > 3 µM | 27% | –
24 | O=C(Nc1ccc2c(O)c(N=Nc3ccc(Cl)cc3)c(S(=O)(=O)O)cc2c1)Nc1ccc2c(O)c(N=Nc3ccc(Cl)cc3)c(S(=O)(=O)O)cc2c1 [Compound 70] | > 3 µM | > 3 µM | – | –
25 | O=C(Nc1ccc2c(O)c(N=Nc3ccc(F)cc3)c(S(=O)(=O)O)cc2c1)Nc1ccc2c(O)c(N=Nc3ccc(F)cc3)c(S(=O)(=O)O)cc2c1 [Compound 69] | 0.9 µM | 0.7 µM | – | –
26 | COC(=O)c1ccc(N=Nc2c(S(=O)(=O)O)cc3cc(NC(=O)Nc4ccc5c(O)c(N=Nc6ccc(C(=O)OC)cc6I)c(S(=O)(=O)O)cc5c4)ccc3c2O)c(I)c1 [Compound 47] | > 3 µM | > 3 µM | 2% | –
27 | O=C(O)CCc1ccc(N=Nc2c(S(=O)(=O)O)cc3cc(NC(=O)Nc4ccc5c(O)c(N=Nc6ccc(CCC(=O)O)cc6)c(S(=O)(=O)O)cc5c4)ccc3c2O)cc1 [Compound 68] | 0.4 µM | 0.4 µM | – | –
28 | O=C(Nc1ccc2c(O)c(N=Nc3cccc(C(=O)O)c3)c(S(=O)(=O)O)cc2c1)C(=O)Nc1ccc2c(O)c(N=Nc3cccc(C(=O)O)c3)c(S(=O)(=O)O)cc2c1 [Compound 96] | 0.4 µM | 0.5 µM | – | –
29 | C=Cc1ccc(N=Nc2c(S(=O)(=O)O)cc3cc(NC(=O)Nc4ccc5c(O)c(N=Nc6ccc(C=C)cc6)c(S(=O)(=O)O)cc5c4)ccc3c2O)cc1 [Compound 74] | 1.5 µM | 2 µM | – | –
30 | O=C(Nc1ccc2c(O)c(N=Nc3cc(C(=O)O)cc(C(=O)O)c3)c(S(=O)(=O)O)cc2c1)Nc1ccc2c(O)c(N=Nc3cc(C(=O)O)cc(C(=O)O)c3)c(S(=O)(=O)O)cc2c1 [Compound 51] | 0.9 µM | 0.5 µM | 1.1% | –
31 | O=C(Nc1ccc2c(O)c(N=Nc3ccccc3)c(S(=O)(=O)O)cc2c1)Nc1ccc2c(O)c(N=Nc3ccccc3)c(S(=O)(=O)O)cc2c1 [Compound 62] | 0.5 µM | 0.4 µM | – | –
32 | O=C(Nc1ccc2c(O)c(N=Nc3ccc(Br)cc3Br)c(S(=O)(=O)O)cc2c1)Nc1ccc2c(O)c(N=Nc3ccc(Br)cc3Br)c(S(=O)(=O)O)cc2c1 [Compound 41] | > 20 µM | > 20 µM | 66% | –
33 | O=C(O)CCCc1ccc(N=Nc2c(S(=O)(=O)O)cc3cc(NC(=O)C(=O)Nc4ccc5c(O)c(N=Nc6ccc(CCCC(=O)O)cc6)c(S(=O)(=O)O)cc5c4)ccc3c2O)cc1 [Compound 95] | 0.7 µM | 0.4 µM | – | –
34 | O=C(Nc1ccc2c(O)c(N=Nc3ccc(I)cc3)c(S(=O)(=O)O)cc2c1)Nc1ccc2c(O)c(N=Nc3ccc(I)cc3)c(S(=O)(=O)O)cc2c1 [Compound 71] | 1 µM | 0.9 µM | – | –
